In assay [1] the target is Phosphatidylcholine-specific phospholipase C (Bacillus cereus) (UniProt P09598). Nature of the assay: Inhibition of recombinant Bacillus cereus N-terminal His6-tagged full length PC-PLC 3C Protease cleavage site expressed in Escherichia coli BL21(DE3) cells using phosphatidylcholine as substrate by amplex red assay relative to control.
Assay [2] can be described thus: Inhibition of Bacillus cereus PC-phospholipase C using phosphoryl-choline as substrate by molybdenum blue dye based assay.
In assay [3] the target is Phosphatidylcholine-specific phospholipase C (Bacillus cereus) (UniProt P09598). In words: Binding affinity to Bacillus cereus N-terminal His6-tagged full length PC-PLC 3C Protease cleavage site expressed in Escherichia coli BL21(DE3) cells using 3,3-dimethylglutaratic acid as substrate by intrinsic fluorescence assay.
The nature of assay [4]: Inhibition of Bacillus cereus phospholipase C using L-alpha-phosphatidylcholine as substrate by Lineweaver-Burk plot analysis.

Molecules are shown by their SMILES.

Chain of Phosphatidylcholine-specific phospholipase C (Bacillus cereus) (P09598 whole entry, looked up): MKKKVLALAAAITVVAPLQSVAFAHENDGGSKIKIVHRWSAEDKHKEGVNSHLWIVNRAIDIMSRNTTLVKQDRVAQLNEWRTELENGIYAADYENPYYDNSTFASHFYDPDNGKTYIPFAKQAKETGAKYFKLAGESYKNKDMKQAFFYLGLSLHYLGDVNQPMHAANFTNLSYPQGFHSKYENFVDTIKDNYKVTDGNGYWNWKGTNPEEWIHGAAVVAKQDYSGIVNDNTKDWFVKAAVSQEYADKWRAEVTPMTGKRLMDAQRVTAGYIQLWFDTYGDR

With `O=C(O)c1cc(NCc2cccc(Cl)c2)ccc1N1CCOCC1`, the IC50 in assay [1] was found to be 4.9 µM.

As for `CN(C)c1ccc(C2NC(C(=O)O)Cc3c2[nH]c2ccccc32)cc1` (stereo not drawn), the concentration for half-maximal inhibition (IC50) in assay [1] was found to be 10.9 µM.

`O=C(O)c1cc(NCc2cccc(Br)c2)ccc1N1CCOCC1`: the concentration for half-maximal inhibition (IC50) in assay [1] was 3.69 µM.

In assay [2], `O=C1N(O)CCCCN1O` yielded a Ki of 71 µM.

In turn, `O=C(O)c1cc(NCc2ccccc2Cl)ccc1N1CCOCC1` registered a dissociation constant (Kd) in assay [3] of 325 µM. Also, the IC50 in assay [1] was 3.6 µM.

In assay [4], `CCCCCOC(=O)CC(CSP(=O)([O-])OCC[N+](C)(C)C)C(=O)OCCCCC` (stereo not drawn) came in with a Ki of 7 µM.

Turning to `O=C(O)C1Cc2c([nH]c3ccccc23)C(c2ccc(O)c(O)c2)N1` (stereo not drawn), the 50% inhibitory concentration (IC50) in assay [1] turned out to be 3.1 µM.

The values are drawn from BindingDB's records for doi:10.1016/j.ejmech.2019.111919 (University of Auckland, 2020).
